Drawing on patent US20230416232A1, “PYRIMIDINE COMPOUNDS, COMPOSITIONS, AND MEDICINAL APPLICATIONS THEREOF” (Blueprint Medicines Corporation, priority 2020, published 2023), this text covers GI50 and IC50 for 20 compounds.

For orientation: IC50 means the concentration at which inhibition is half-maximal.

What all share (format): cell-based
Assay [1] deals with HER2 (A775_G776insYVMA) expressing Ba/F3 stable cell line (Homo sapiens, UniProt P04626, DUP772-775, cells depend on it). Kind of assay: Cellular proliferation (Alamar Blue) assay, HER2 (A775_G776insYVMA) Ba/F3. The settings on record: HER2 (A775_G776insYVMA) Ba/F3 cells; 72 hr; Alamar Blue; read-out: YVMA IC50. The method, boiled down:
(§1)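 Engineered Ba/F3 lines in RPMI with 10% FBS and A431 cells in DMEM with 10% FBS are plated overnight, exposed to compound dilutions (10-0.0005 μM final) for 72 hours, and then scored by a 3-hour Alamar Blue incubation.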
For orientation: Resazurin is reduced to fluorescent resorufin, in cell work by metabolically active cells.

The next assay relates to A431 cells. Kind of assay: Cellular proliferation (Alamar Blue) assay, A431 cells. To be noted: Homo sapiens, A-431, 72 h, A431 cells; 72 hr; Alamar Blue; read-out: A431 IC50. The gist of the method:
as §1

Assay [2] concerns the target EGFR(D770_N771insSVD) expressing Ba/F3 stable cell line (Homo sapiens, UniProt P00533, DUP768-770, cells depend on it). Kind of assay: Cellular proliferation (Alamar Blue) assay, EGFR(D770_N771insSVD) Ba/F3. To be noted: 72 hr, read-out: D770 IC50. The method, boiled down:
as §1

For assay [3], the target named is EGFR (A767_dupASV) expressing Ba/F3 stable cell line (Homo sapiens, UniProt P00533, DUP767-769, cells depend on it). Kind of assay: Cellular proliferation (Alamar Blue) assay, EGFR (A767_dupASV) Ba/F3. The settings on record: 72 hr, read-out: A767 IC50. The method, boiled down: as §1
Sequence of EGFR (A767_dupASV) expressing Ba/F3 stable cell line (P00533 with tags, fused parts or gaps DUP767-769): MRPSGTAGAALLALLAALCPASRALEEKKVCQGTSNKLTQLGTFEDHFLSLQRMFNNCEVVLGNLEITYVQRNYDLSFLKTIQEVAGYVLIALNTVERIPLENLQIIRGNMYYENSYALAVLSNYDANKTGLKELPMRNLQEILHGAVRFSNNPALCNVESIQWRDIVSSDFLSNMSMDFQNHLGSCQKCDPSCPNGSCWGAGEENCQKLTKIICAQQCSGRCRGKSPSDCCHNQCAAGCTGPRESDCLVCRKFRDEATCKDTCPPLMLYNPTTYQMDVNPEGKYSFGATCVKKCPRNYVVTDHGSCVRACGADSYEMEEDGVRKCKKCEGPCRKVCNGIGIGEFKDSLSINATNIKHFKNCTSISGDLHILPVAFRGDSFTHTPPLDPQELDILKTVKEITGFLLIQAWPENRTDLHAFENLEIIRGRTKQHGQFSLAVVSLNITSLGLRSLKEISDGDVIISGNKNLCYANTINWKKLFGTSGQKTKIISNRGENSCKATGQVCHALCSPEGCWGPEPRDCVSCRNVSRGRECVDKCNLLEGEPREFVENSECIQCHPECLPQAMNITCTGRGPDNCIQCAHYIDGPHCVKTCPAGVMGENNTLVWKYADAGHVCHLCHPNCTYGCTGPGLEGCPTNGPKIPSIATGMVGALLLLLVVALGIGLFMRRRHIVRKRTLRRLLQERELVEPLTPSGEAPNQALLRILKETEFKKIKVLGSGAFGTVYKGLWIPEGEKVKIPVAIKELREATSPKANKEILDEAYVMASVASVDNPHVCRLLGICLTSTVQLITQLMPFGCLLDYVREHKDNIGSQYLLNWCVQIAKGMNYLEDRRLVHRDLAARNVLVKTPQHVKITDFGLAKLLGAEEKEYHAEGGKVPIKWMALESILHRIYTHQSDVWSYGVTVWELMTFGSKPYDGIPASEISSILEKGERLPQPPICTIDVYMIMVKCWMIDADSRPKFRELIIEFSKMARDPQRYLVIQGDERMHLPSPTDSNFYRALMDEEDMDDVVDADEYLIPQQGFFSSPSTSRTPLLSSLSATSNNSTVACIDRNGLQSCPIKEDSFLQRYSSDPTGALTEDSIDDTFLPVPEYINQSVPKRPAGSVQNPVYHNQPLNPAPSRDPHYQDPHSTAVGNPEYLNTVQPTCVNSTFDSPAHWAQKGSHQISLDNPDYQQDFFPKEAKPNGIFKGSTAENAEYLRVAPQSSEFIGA

Sequence of HER2 (A775_G776insYVMA) expressing Ba/F3 stable cell line (P04626 with tags, fused parts or gaps DUP772-775): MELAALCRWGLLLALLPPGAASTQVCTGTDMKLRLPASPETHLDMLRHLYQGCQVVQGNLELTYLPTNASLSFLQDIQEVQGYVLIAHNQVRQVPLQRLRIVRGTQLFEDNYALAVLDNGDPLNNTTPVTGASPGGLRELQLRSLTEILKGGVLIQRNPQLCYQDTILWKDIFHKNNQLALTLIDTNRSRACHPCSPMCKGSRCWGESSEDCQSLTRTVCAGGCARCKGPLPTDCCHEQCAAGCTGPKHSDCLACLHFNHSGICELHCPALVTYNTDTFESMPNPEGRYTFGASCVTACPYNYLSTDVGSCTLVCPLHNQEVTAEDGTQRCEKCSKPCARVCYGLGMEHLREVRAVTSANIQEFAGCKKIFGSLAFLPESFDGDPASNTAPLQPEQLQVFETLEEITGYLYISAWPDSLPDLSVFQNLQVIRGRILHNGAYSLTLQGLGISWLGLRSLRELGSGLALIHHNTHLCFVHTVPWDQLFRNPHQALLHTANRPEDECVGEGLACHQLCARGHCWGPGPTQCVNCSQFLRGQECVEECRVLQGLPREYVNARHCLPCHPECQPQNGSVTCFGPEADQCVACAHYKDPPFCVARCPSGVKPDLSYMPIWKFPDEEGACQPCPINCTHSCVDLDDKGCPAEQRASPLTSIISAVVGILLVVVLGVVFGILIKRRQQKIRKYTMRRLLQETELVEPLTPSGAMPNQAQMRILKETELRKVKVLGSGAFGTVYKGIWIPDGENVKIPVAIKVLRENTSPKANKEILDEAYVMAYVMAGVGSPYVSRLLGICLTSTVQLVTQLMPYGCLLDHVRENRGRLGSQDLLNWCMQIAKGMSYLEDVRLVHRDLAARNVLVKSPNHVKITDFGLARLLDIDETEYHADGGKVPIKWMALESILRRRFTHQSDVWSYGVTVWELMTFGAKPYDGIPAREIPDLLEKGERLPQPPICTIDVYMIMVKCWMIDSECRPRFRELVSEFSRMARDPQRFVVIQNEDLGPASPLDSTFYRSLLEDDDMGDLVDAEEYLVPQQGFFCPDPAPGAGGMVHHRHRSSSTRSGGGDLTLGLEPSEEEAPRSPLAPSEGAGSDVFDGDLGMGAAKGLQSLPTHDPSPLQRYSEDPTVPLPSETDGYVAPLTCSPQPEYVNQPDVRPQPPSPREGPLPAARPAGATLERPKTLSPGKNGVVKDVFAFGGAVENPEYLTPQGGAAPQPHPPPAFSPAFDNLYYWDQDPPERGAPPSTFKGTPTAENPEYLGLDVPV
Sequence of EGFR(D770_N771insSVD) expressing Ba/F3 stable cell line (P00533 with tags, fused parts or gaps DUP768-770): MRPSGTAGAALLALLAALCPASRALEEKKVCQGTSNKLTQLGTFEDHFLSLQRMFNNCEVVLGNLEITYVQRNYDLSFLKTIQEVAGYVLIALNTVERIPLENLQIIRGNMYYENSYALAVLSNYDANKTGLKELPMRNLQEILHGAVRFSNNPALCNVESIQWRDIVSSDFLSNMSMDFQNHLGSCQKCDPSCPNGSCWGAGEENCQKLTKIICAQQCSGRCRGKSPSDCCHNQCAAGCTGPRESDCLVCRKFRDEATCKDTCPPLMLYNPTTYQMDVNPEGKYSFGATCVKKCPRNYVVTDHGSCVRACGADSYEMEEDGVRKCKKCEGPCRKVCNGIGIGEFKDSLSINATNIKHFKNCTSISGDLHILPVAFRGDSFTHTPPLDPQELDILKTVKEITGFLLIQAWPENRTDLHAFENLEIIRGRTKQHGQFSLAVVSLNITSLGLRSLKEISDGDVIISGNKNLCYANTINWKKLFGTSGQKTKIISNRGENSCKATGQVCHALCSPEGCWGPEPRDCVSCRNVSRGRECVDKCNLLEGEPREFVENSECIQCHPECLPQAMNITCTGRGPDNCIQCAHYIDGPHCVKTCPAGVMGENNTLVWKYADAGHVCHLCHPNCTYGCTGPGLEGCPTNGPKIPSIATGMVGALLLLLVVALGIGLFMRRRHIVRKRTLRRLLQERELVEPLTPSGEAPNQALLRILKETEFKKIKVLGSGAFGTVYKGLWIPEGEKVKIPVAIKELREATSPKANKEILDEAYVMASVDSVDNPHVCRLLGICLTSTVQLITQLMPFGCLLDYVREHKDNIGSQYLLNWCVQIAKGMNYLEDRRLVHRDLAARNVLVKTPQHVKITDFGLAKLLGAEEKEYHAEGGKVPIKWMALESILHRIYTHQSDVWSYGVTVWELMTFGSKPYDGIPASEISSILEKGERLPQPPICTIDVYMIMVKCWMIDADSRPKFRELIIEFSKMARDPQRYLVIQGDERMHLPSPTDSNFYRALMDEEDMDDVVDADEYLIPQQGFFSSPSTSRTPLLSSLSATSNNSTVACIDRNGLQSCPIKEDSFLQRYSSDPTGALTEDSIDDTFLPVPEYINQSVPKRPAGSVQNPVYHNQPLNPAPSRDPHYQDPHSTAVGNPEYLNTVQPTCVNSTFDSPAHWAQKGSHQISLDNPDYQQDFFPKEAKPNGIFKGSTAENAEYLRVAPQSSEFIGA

In the case of `C=CC(=O)Nc1ccc(F)c(Nc2nc(Nc3cn(C)nc3Cl)ncc2-c2cc(F)cc(OC)c2)c1` [Compound 106, N-(3-((2-((3-chloro-1-methyl-1H-pyrazol-4-yl)amino)-5-(3-fluoro-5-methoxyphenyl)pyrimidin-4-yl)amino)-4-fluorophenyl)acrylamide], the values for the GI50 in assay [1], in assay [2] and in assay [3] were 568 nM, 285 nM and 35 nM, respectively. Moreover, the half-inhibitory concentration (IC50) in the assay on A431 cells came out at 125 nM.
The like results for `C=CC(=O)Nc1ccc(F)c(Nc2nc(Nc3cn(C)nc3Cl)ncc2-c2cc(F)cc(C(F)F)c2)c1` [Compound 108, N-(3-((2-((3-chloro-1-methyl-1H-pyrazol-4-yl)amino)-5-(3-(difluoromethyl)-5-fluorophenyl)pyrimidin-4-yl)amino)-4-fluorophenyl)acrylamide] were, in that order, 243 nM, 39 nM, 96 nM and 23 nM.
The like results for `C=CC(=O)Nc1ccc(F)c(Nc2nc(Nc3cnn(C)c3)ncc2-c2cc(F)cc(Br)c2)c1` [Compound 109, N-(3-((5-(3-bromo-5-fluorophenyl)-2-((1-methyl-1H-pyrazol-4-yl)amino)pyrimidin-4-yl)amino)-4-fluorophenyl)acrylamide] were, in that order, 192 nM, 53 nM, 97 nM and 534 nM.
On to `C=CC(=O)Nc1ccc(F)c(Nc2nc(Nc3cnn(C)c3)ncc2-c2cccc(Br)c2F)c1` [Compound 113, N-(3-((5-(3-bromo-2-fluorophenyl)-2-((1-methyl-1H-pyrazol-4-yl)amino)pyrimidin-4-yl)amino)-4-fluorophenyl)acrylamide], for which the GI50 is 463 nM in assay [1], 70 nM in assay [2] and 92 nM in assay [3]. Also, the IC50 in the assay on A431 cells turned out to be 73 nM.
For `C=CC(=O)Nc1cccc(Nc2nc(Nc3cnn(C)c3)ncc2-c2ccc(Br)c(F)c2)c1` [Compound 115, N-(3-((5-(4-bromo-3-fluorophenyl)-2-((1-methyl-1H-pyrazol-4-yl)amino)pyrimidin-4-yl)amino)phenyl)acrylamide], the figures for the GI50 in assay [1], in assay [2] and in assay [3] were 86 nM, 32 nM and 36 nM, respectively. In the assay on A431 cells, the IC50 stood at 11 nM.
`CN(C)C/C=C/C(=O)Nc1ccc(F)c(Nc2nc(Nc3cnn(C)c3)ncc2-c2cc(F)cc(F)c2)c1` [Compound 117, (E)-N-(3-((5-(3,5-difluorophenyl)-2-((1-methyl-1H-pyrazol-4-yl)amino)pyrimidin-4-yl)amino)-4-fluorophenyl)-4-(dimethylamino)but-2-enamide]: the values for the GI50 in assay [1], in assay [2] and in assay [3] were 141 nM, 135 nM and 328 nM, respectively. Besides, in the assay with A431 cells, the IC50 amounted to 668 nM.
The like results for `C=CC(=O)Nc1ccc(F)c(Nc2nc(Nc3cnn(C)c3)ncc2-c2cc(F)c(Br)c(Cl)c2)c1` [Compound 123, N-(3-((5-(4-bromo-3-chloro-5-fluorophenyl)-2-((1-methyl-1H-pyrazol-4-yl)amino)pyrimidin-4-yl)amino)-4-fluorophenyl)acrylamide] were, in that order, 66 nM, 40 nM, 50 nM and 71 nM.
The like results for `C=CC(=O)Nc1cccc(Nc2nc(Nc3cnn(C)c3)ncc2-c2ccc(OC(F)F)c(F)c2)c1` [Compound 124, N-(3-((5-(4-(difluoromethoxy)-3-fluorophenyl)-2-((1-methyl-1H-pyrazol-4-yl)amino)pyrimidin-4-yl)amino)phenyl)acrylamide] were, in that order, 49 nM, 11 nM, 21 nM and 6 nM.
The like results for `C=CC(=O)Nc1ccc(F)c(Nc2nc(Nc3cnn(C)c3)ncc2-c2cc(F)c(F)c(OC)c2)c1` [Compound 126, N-(3-((5-(3,4-difluoro-5-methoxyphenyl)-2-((1-methyl-1H-pyrazol-4-yl)amino)pyrimidin-4-yl)amino)-4-fluorophenyl)acrylamide] were, in that order, 153 nM, 40 nM, 100 nM and 43 nM.
On to `C=CC(=O)Nc1cccc(Nc2nc(Nc3cnn(C)c3)ncc2-c2cc(F)cc(OC)c2)c1` [Compound 127, N-(3-((5-(3-fluoro-5-methoxyphenyl)-2-((1-methyl-1H-pyrazol-4-yl)amino)pyrimidin-4-yl)amino)phenyl)acrylamide], for which the values for the GI50 in assay [1], in assay [2] and in assay [3] were 167 nM, 89 nM and 312 nM, respectively. Also, in the assay with A431 cells, the IC50 was 123 nM.
Consider `C=CC(=O)Nc1cc(Br)cc(Nc2nc(Nc3cnn(C)c3)ncc2-c2ccc(OC(F)F)c(F)c2)c1` [Compound 132, N-(3-bromo-5-((5-(4-(difluoromethoxy)-3-fluorophenyl)-2-((1-methyl-1H-pyrazol-4-yl)amino)pyrimidin-4-yl)amino)phenyl)acrylamide], for which the GI50 in assay [1] is 345 nM; in assay [2], 34 nM; in assay [3] it was 40 nM. In the assay with A431 cells, the IC50 turned out to be 51 nM.
In the case of `C=CC(=O)Nc1ccc(F)c(Nc2nc(Nc3cnn(C)c3)ncc2-c2cc(F)c(C(F)(F)F)c(OC)c2)c1` [Compound 133, N-(4-fluoro-3-((5-(3-fluoro-5-methoxy-4-(trifluoromethyl)phenyl)-2-((1-methyl-1H-pyrazol-4-yl)amino)pyrimidin-4-yl)amino)phenyl)acrylamide], the GI50 in assay [1] came to 1270 nM; in assay [2], 251 nM; in assay [3], 322 nM. Also, in the assay on A431 cells, the IC50 turned out to be 394 nM.
The like results for `C=CC(=O)Nc1ccc(F)c(Nc2nc(Nc3cnn(C)c3)ncc2-c2cc(F)c(F)c(C(F)F)c2)c1` [Compound 141, N-(3-((5-(3-(difluoromethyl)-4,5-difluorophenyl)-2-((1-methyl-1H-pyrazol-4-yl)amino)pyrimidin-4-yl)amino)-4-fluorophenyl)acrylamide] were, in that order, 167 nM, 16 nM, 25 nM and 13 nM.
In the case of `C=CC(=O)Nc1ccc(F)c(Nc2nc(Nc3cnn(C)c3)ncc2-c2cc(F)c(F)c(F)c2)c1` [Compound 149, N-(4-fluoro-3-((2-((1-methyl-1H-pyrazol-4-yl)amino)-5-(3,4,5-trifluorophenyl)pyrimidin-4-yl)amino)phenyl)acrylamide], the values for the GI50 in assay [1], in assay [2] and in assay [3] were 92 nM, 11 nM and 34 nM, respectively. Also, the IC50 in the assay on A431 cells turned out to be 11 nM.
Regarding `CN(C)C/C=C/C(=O)Nc1cccc(Nc2nc(Nc3cnn(C)c3)ncc2-c2cc(F)cc(F)c2)c1` [Compound 150, (E)-N-(3-((5-(3,5-difluorophenyl)-2-((1-methyl-1H-pyrazol-4-yl)amino)pyrimidin-4-yl)amino)phenyl)-4-(dimethylamino)but-2-enamide], the GI50 in assay [1] was determined as 237 nM; in assay [2] it was 126 nM; in assay [3] it was 110 nM. For the same compound, in the assay on A431 cells, the IC50 turned out to be 214 nM.
In the case of `C=CC(=O)Nc1cccc(Nc2nc(Nc3cnn(C)c3)ncc2-c2cc(F)c(Br)c(F)c2)c1` [Compound 152, N-(3-((5-(4-bromo-3,5-difluorophenyl)-2-((1-methyl-1H-pyrazol-4-yl)amino)pyrimidin-4-yl)amino)phenyl)acrylamide], the figures for the GI50 in assay [1], in assay [2] and in assay [3] were 40 nM, 11 nM and 34 nM, respectively. Also, the IC50 with A431 cells came out at 8 nM.
The like results for `C=CC(=O)Nc1cccc(Nc2nc(Nc3cnn(C)c3)ncc2-c2cc(F)c(C(F)(F)F)c(F)c2)c1` [Compound 153, N-(3-((5-(3,5-difluoro-4-(trifluoromethyl)phenyl)-2-((1-methyl-1H-pyrazol-4-yl)amino)pyrimidin-4-yl)amino)phenyl)acrylamide] were, in that order, 98 nM, 13 nM, 34 nM and 1080 nM.
The like results for `C=CC(=O)Nc1cccc(Nc2nc(Nc3cnn(C)c3)ncc2-c2cc(F)c(Br)c(Cl)c2)c1` [Compound 154, N-(3-((5-(4-bromo-3-chloro-5-fluorophenyl)-2-((1-methyl-1H-pyrazol-4-yl)amino)pyrimidin-4-yl)amino)phenyl)acrylamide] were, in that order, 154 nM, 34 nM, 81 nM and 1760 nM.
As for `C=CC(=O)Nc1ccc(F)c(Nc2nc(Nc3cnn(C)c3)ncc2-c2cc(C(F)F)cc(C(F)F)c2)c1` [Compound 155, N-(3-((5-(3,5-bis(difluoromethyl)phenyl)-2-((1-methyl-1H-pyrazol-4-yl)amino)pyrimidin-4-yl)amino)-4-fluorophenyl)acrylamide], the GI50 stood at 1670 nM in assay [1], 107 nM in assay [2] and 133 nM in assay [3]. For the same compound, in the assay with A431 cells, the IC50 was 338 nM.
Regarding `[2H]c1c(F)cc(-c2cnc(Nc3cnn(C)c3)nc2Nc2cc(NC(=O)C=C)ccc2F)cc1F` [Compound 157, N-[3-({5-[3,5-difluoro(4-^2H)phenyl]-2-[(1-methyl-1H-pyrazol-4-yl)amino]pyrimidin-4-yl}amino)-4-fluorophenyl] prop-2-enamide], the GI50 is 151 nM in assay [1], 16 nM in assay [2] and 35 nM in assay [3]. Moreover, the IC50 with A431 cells was found to be 23 nM.
